Reference: patent US10760052B2, “Method of inhibiting tau phosphorylation” (priority 2012, dated 2020)
Where two headings read alike, the source gives them in different places.

Target: T1, mu opiate receptor (MOR) (Rattus norvegicus, UniProt P33535)
T1 construct: from tissue; host or cells: striatum (membrane preparation)
Format: biochemical
Settings: for [35S]GTPγS binding, FLNA-Binding Compound as Agonist at 0.1 μM: 0.1 μM compound; for [35S]GTPγS binding, FLNA-Binding Compound as Agonist at 0.1 μM / [35S]GTPγS binding, FLNA-Binding Compound as Agonist at 1 μM: striatal membranes; for [35S]GTPγS binding, FLNA-Binding Compound as Agonist at 0.1 μM / [35S]GTPγS binding, FLNA-Binding Compound as Agonist at 1 μM + BFNA / [35S]GTPγS binding, FLNA-Binding Compound as Agonist at 1 μM: Series C-2; for [35S]GTPγS binding, FLNA-Binding Compound as Agonist at 1 μM + BFNA: 1 μM compound + 1 μM β-FNA (selective MOR antagonist); for [35S]GTPγS binding, FLNA-Binding Compound as Agonist at 1 μM: 1 μM compound
Description: To assess the mu opiate receptor (MOR) agonist activity of positive compounds from the FLNA screening, compounds were tested in a [^35S]GTPγS binding assay using striatal membranes. […] This assay measures a functional consequence of receptor occupancy at one of the earliest receptor-mediated events. The assay permits for traditional pharmacological parameters of potency, efficacy and antagonist affinity, with the advantage that agonist measures are not subjected to amplification or other modulation that may occur when analyzing parameters further downstream of the receptor.
Thus, striatal tissue was homogenized in 10 volumes of ice cold 25 mM HEPES buffer, pH 7.4, which contained 1 mM EGTA, 100 mM sucrose, 50 μg/ml leupeptin, 0.04 mM PMSF, 2 μg/ml soybean trypsin inhibitor and 0.2% 2-mercaptoethanol. The homogenates were centrifuged at 800×g for 5 minutes and the supernatants were centrifuged at 49,000×g for 20 minutes.
The resultant striatal membrane preparation (200 μg) was admixed and maintained (incubated) at 30° C. for 5 minutes in reaction buffer as above that additionally contained 1 mM MgCl2 and 0.5 nM [^35S]GTPγS (0.1 μCi/assay, PerkinElmer Life and Analytical Sciences) in a total volume of 250 μl and continued for 5 minutes in the absence or presence of 0.1-10 μM of an assayed compound of interest. The reaction was terminated by dilution with 750 μl of ice-cold reaction buffer that contained 20 mM MgCl2 and 1 mM EGTA and immediate centrifugation at 16,000×g for 5 minutes.
Normal rabbit serum (1 μl) was added to 1 ml of lysate and incubated at 25° C. for 30 minutes. Nonspecific immune complexes were removed by incubation with 25 μl of protein A/G-conjugated agarose beads at 25° C. for 30 minutes followed by centrifugation at 5,000×g at 4° C. for 5 minutes. The supernatant was divided and separately incubated at 25° C. for 30 minutes with antibodies raised against Gαo proteins (1:1,000 dilutions).
The immunocomplexes so formed were collected by incubation at 25° C. for 30 minutes with 40 μl of agarose-conjugated protein A/G beads and centrifugation at 5,000×g at 4° C. for 5 minutes. The pellet was washed and suspended in buffer containing 50 mM Tris-HCl, pH 8.0, and 1% NP-40. The radioactivity in the suspension was determined by liquid scintillation spectrometry.

[1] = [35S]GTPγS binding to Gαo in striatal membranes, compound 0.1 μM
[2] = [35S]GTPγS binding to Gαo in striatal membranes, compound 1 μM
[3] = [35S]GTPγS binding to Gαo in striatal membranes, compound 1 μM plus 1 μM β-funaltrexamine (MOR antagonist)

T1 sequence (P33535 whole entry): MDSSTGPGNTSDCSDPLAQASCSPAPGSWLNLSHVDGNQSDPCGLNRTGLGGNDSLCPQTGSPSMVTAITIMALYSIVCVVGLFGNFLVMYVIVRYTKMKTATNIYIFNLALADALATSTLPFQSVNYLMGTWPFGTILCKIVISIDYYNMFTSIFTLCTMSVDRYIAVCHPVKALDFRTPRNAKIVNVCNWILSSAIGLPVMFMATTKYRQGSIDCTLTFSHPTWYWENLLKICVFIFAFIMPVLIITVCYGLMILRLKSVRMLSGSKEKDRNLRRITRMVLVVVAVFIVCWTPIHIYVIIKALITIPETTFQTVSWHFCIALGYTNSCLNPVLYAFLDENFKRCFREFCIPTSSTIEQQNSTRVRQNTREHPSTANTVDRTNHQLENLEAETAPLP

| Compound | % DAMGO (0.1 μM) [%] | % DAMGO (1 μM) [%] | % DAMGO + BFNA [%] | [35S]GTPγS binding, FLNA-Binding Compound as Agonist at 0.1 μM [%] | [35S]GTPγS binding, FLNA-Binding Compound as Agonist at 1 μM + BFNA [%] | [35S]GTPγS binding, FLNA-Binding Compound as Agonist at 1 μM [%] | Concentration of FLNA-Binding Compound as Agonist 0.1 μM [1] [%] | Concentration of FLNA-Binding Compound as Agonist 1 μM [2] [%] | Concentration of FLNA-Binding Compound as Agonist 1 μM + BFNA [3] [%] | Concentration of FLNA-Binding Compound as Agonist 0.1 μM [%] | Concentration of FLNA-Binding Compound as Agonist 1 μM [%] | Concentration of FLNA-Binding Compound as Agonist 1 μM + BFNA [%] |
| --- | --- | --- | --- | --- | --- | --- | --- | --- | --- | --- | --- | --- |
| CC(=O)c1ccc(S(=O)(=O)N2CC(CN(C)C)OC23CCN(C)CC3)cc1 (stereo not drawn) [Compound C0108M] | 108.7 | 104.1 | 158.6 | 205.6 | 76.9 | 258.5 |  |  |  |  |  |  |
| CC(=O)c1ccc(OCC(O)CN2CC(C)OC(C)C2)cc1 (stereo not drawn) [Compound A0044] | 89.8 | 75.8 | 182.3 |  |  |  | 176.2 | 209.1 | 134.7 |  |  |  |
| COc1c2c(cc3c1C(CC(=O)c1ccc(O)c(C)c1)[N+](C)(C)CC3)OCO2 (stereo not drawn) [Compound B0002] | 100.0 | 81.1 | 156.0 |  |  |  | 165.7 | 219.0 | 101.4 |  |  |  |
| CC1CCC(C(C)C)C(OCC(O)CN2CCN(CCc3ccccc3)CC2)C1 (stereo not drawn) [Compound A0020] | 100.9 | 88.7 | 194.2 |  |  |  | 168.6 | 217.4 | 67.4 |  |  |  |
| CC1CN(CC(O)COc2cccc(C(F)(F)F)c2)CC(C)O1 (stereo not drawn) [Compound A0051] | 148.0 | 140.1 | 286.3 |  |  |  | 290.4 | 386.6 | 211.6 |  |  |  |
| COc1ccc(OCC(O)Cn2ccc3ccccc32)cc1 (stereo not drawn) [Compound A0077] | 170.5 | 132.3 | 470.5 |  |  |  | 300.1 | 334.7 | 103.5 |  |  |  |
| CC1CCC(C(C)C)C(OCC(O)CN2CCCC2=O)C1 (stereo not drawn) [Compound A0035] | 61.5 | 57.5 | 119.9 |  |  |  | 120.6 | 158.8 | 88.6 |  |  |  |
| COc1ccc(S(=O)(=O)N2CCC3(NCCO3)C3CCCCC32)cc1 (stereo not drawn) [Compound C0144M-2] | 108.3 | 90.8 | 137.9 | 186.3 | 125.9 | 295.9 |  |  |  |  |  |  |
| CC(=O)c1ccc(S(=O)(=O)N2CCC3(CC2)NC(=O)CN3S(=O)(=O)c2ccc(C(C)=O)cc2)cc1 [Compound C0064] | 124.2 | 159.1 | 110.4 |  |  |  | 213.8 | 349.6 | 38.1 |  |  |  |
| CC(=O)c1ccc(S(=O)(=O)N2CCC3(CC2)OCCN3S(C)(=O)=O)cc1 [Compound C0056] | 68.0 | 83.0 | 196.1 | 98.6 | 86.3 | 193.4 |  |  |  |  |  |  |
| CC(=O)c1ccc(S(=O)(=O)N2CCC3(CC2)OCC(CCCCN(C)C)N3S(=O)(=O)c2ccc(C(C)=O)cc2)cc1 (stereo not drawn) [Compound C0080M] | 112.1 | 92.4 | 351.8 |  |  |  | 187.9 | 205.4 | 167.1 |  |  |  |
| CC1CCC(C(C)C)C(OCC(O)CN2CCCCC2)C1 (stereo not drawn) [Compound A0005] | 105.0 | 89.6 | 45.1 |  |  |  | 179.7 | 239.2 | 23.5 |  |  |  |
| COc1ccc(CCCCC2c3c(cc4c(c3OC)OCO4)CC[N+]2(C)C)cc1 (stereo not drawn) [Compound B0056] | 98.9 | 113.6 | 158.9 |  |  |  | 174.7 | 288.8 | 41.8 |  |  |  |
| O=C(O)c1ccc(C(=O)N2CCC3(CC2)OCCN3S(=O)(=O)c2ccc(C(=O)O)cc2)cc1 [Compound C0021] | 94.5 | 87.8 | 546.4 |  |  |  | 159.7 | 192.0 | 90.7 |  |  |  |
| CCOc1ccc(C(=O)CC2c3c(cc4c(c3OC)OCO4)CC[N+]2(C)C)cc1F (stereo not drawn) [Compound B0020] | 30.1 | 68.0 | 47.8 |  |  |  | 51.6 | 181.6 | 24.9 |  |  |  |
| CC1CCC(C(C)C)C(OCC(O)CN2CCSCC2)C1 (stereo not drawn) [Compound A0003] | 118.3 | 119.9 | 64.5 |  |  |  |  |  |  | 176.8 | 276.0 | 17.1 |
| CC1CN(CC(O)COc2ccccc2C(C)C)CC(C)O1 (stereo not drawn) [Compound A0029] | 98.4 | 81.2 | 84.8 |  |  |  | 173.8 | 206.5 | 22.3 |  |  |  |
| COc1ccc(CCC(O)CC2c3c(cc4c(c3OC)OCO4)CC[N+]2(C)C)cc1 (stereo not drawn) [Compound B0049] | 102.8 | 143.1 | 506.5 |  |  |  | 181.6 | 364.0 | 133.2 |  |  |  |
| O=S(=O)(c1ccccc1Oc1ccccc1)N1CCC2(CC1)NCCO2 [Compound C0149M-2] | 122.0 | 124.8 | 102.3 | 209.8 | 93.4 | 406.7 |  |  |  |  |  |  |
